Source: ChEMBL document CHEMBL3580564, “Semisynthetic Studies on and Biological Evaluation of N-Methyllaurotetanine Analogues as Ligands for 5-HT Receptors” (J Nat Prod, 2015)
pKi: −log10 of the molar value.

What was measured:
[1] = organism: Homo sapiens; assay: Selectivity index, ratio of Ki for human recombinant 5-HT1A receptor to Ki for human recombinant 5-HT7 receptor
[2] = organism: Homo sapiens; assay: Selectivity index, ratio of Ki for human recombinant 5-HT2A receptor to Ki for human recombinant 5-HT7 receptor
[3] = target: 5-hydroxytryptamine receptor 7 (Homo sapiens, UniProt P34969); assay: Displacement of [3H]LSD from human recombinant 5-HT7 receptor expressed in HEK cell membranes by radioligand binding assay; set-up: species or system HEK293
Sequence of 5-hydroxytryptamine receptor 7 (P34969 whole entry): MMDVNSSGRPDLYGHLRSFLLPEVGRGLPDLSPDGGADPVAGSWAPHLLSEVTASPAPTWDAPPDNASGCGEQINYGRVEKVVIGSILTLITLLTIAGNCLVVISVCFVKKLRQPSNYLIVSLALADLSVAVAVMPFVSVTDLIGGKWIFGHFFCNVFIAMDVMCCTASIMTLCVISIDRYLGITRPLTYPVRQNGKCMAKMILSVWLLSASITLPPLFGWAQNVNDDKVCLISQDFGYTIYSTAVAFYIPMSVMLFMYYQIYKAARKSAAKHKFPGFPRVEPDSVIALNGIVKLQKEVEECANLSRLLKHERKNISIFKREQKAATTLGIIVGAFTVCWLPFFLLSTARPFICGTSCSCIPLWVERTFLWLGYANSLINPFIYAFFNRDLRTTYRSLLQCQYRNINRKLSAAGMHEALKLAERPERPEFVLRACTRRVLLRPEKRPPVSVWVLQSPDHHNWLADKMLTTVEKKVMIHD

[4] = target: T1, 5-hydroxytryptamine receptor 1A (Homo sapiens, UniProt P08908); assay: Displacement of [3H]Way100635 from human recombinant 5-HT1A receptor expressed in CHO cell membranes by radioligand binding assay
T1 sequence (P08908 whole entry): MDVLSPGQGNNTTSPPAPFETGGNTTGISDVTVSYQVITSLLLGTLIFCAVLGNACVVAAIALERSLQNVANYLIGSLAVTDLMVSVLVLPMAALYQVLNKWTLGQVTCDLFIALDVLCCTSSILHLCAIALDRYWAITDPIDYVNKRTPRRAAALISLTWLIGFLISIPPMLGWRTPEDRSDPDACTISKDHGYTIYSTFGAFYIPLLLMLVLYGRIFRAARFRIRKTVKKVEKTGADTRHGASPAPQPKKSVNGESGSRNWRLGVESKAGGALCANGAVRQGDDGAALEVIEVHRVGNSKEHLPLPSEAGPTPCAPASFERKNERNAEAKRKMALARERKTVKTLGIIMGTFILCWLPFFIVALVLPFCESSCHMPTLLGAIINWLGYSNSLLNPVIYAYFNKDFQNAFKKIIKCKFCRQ

[5] = target: 5-hydroxytryptamine receptor 2A (Homo sapiens, UniProt P28223); assay: Displacement of [3H]ketanserin from human recombinant 5-HT2A receptor expressed in HEKT cell membranes by radioligand binding assay; type: cell-based
Sequence of 5-hydroxytryptamine receptor 2A (P28223 whole entry): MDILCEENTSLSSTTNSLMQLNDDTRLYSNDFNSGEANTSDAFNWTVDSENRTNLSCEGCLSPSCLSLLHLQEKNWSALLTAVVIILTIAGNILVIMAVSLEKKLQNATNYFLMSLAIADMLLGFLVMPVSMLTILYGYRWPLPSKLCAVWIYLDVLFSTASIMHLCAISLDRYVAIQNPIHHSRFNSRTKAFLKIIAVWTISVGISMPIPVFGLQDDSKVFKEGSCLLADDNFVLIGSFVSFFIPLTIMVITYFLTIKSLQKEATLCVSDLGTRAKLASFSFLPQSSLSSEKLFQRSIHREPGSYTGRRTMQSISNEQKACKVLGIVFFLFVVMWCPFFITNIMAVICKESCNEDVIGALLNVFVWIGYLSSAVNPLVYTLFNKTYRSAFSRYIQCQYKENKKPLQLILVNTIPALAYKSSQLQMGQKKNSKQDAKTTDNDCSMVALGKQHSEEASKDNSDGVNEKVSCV

[6] = target: Mu-type opioid receptor (Homo sapiens) (UniProt P35372); assay: Displacement of [3H]DAMGO from human recombinant MOR expressed in HEK cell membranes by radioligand binding assay; details: HEK293, concentration not given here
[7] = target: Translocator protein (Rattus norvegicus) (UniProt P16257); assay: Displacement of [3H]PK11195 from rat brain PBR by radioligand binding assay; details: concentration not given here
[8] = target: Sigma non-opioid intracellular receptor 1 (Cavia porcellus) (UniProt Q60492); assay: Binding affinity to guinea pig sigma1 receptor by radioligand binding assay; details: concentration not given here
[9] = test system: Sigma 2 receptor; assay: Displacement of [3H]DTG from human recombinant sigma2 receptor by radioligand binding assay; details: concentration not given here
[10] = target: 5-hydroxytryptamine receptor 2C (Homo sapiens, UniProt P28335); assay: Displacement of [3H]mesulergine from human recombinant 5-HT2C receptor expressed in Flp-IN HEK cell membranes by radioligand binding assay; set-up: species or system HEK293
[11] = target: Alpha-1B adrenergic receptor (Homo sapiens, UniProt P35368); assay: Displacement of [3H]prazosin from human recombinant adrenergic alpha1B receptor expressed in HEKT cell membranes by radioligand binding assay
[12] = target: Alpha-2C adrenergic receptor (Homo sapiens, UniProt P18825); assay: Displacement of [3H]rauwolscine from human recombinant adrenergic alpha2C receptor expressed in MDCK cell membranes by radioligand binding assay
Sequence of Alpha-2C adrenergic receptor (P18825 whole entry): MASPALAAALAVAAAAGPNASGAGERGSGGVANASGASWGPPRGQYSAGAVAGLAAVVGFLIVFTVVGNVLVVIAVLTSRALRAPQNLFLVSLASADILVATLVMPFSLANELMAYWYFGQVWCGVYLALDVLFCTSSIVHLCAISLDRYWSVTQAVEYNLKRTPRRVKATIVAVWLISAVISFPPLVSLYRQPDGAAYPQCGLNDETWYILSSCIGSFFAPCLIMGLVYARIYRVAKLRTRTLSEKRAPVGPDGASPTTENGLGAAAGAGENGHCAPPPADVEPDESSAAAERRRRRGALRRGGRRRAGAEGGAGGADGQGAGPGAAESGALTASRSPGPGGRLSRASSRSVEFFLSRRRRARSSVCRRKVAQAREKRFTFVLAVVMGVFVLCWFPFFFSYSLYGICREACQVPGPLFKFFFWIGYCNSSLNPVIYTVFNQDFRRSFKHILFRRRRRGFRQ

[13] = target: Beta-2 adrenergic receptor (Homo sapiens, UniProt P07550); assay: Displacement of [3H]CGP12177 from human recombinant adrenergic beta2 receptor expressed in CHO Flp-In cell membranes by radioligand binding assay
Sequence of Beta-2 adrenergic receptor (P07550 whole entry): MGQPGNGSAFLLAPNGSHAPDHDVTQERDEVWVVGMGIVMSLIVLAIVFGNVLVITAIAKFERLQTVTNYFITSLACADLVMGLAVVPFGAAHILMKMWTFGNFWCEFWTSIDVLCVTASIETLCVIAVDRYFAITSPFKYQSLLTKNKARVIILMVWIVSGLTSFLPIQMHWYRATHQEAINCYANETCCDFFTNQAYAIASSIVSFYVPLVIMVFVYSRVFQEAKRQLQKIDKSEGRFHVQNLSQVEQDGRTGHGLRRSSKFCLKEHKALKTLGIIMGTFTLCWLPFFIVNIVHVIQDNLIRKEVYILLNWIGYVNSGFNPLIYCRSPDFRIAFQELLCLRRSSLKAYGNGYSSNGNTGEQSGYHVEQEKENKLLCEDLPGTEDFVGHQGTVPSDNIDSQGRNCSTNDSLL

[14] = target: D(3) dopamine receptor (Homo sapiens, UniProt P35462); assay: Displacement of [3H]N-methylspiperone from human recombinant dopamine D3 receptor expressed in HEKT cell membranes by radioligand binding assay
[15] = target: Sodium-dependent dopamine transporter (Homo sapiens, UniProt Q01959); assay: Displacement of [3H]WIN35428 from human recombinant DAT expressed in HEK cell membranes by radioligand binding assay; set-up: species or system HEK293
[16] = target: Sodium-dependent noradrenaline transporter (Homo sapiens, UniProt P23975); assay: Displacement of [3H]nisoxetine from human recombinant NET expressed in HEK cell membranes by radioligand binding assay; set-up: species or system HEK293
[17] = target: Sodium-dependent serotonin transporter (Homo sapiens, UniProt P31645); assay: Displacement of [3H]citalopram from human recombinant SERT expressed in HEK cell membranes by radioligand binding assay; set-up: species or system HEK293
[18] = target: 5-hydroxytryptamine receptor 1E (Homo sapiens) (UniProt P28566); assay: Displacement of [3H]5-HT from human recombinant 5-HT1E receptor expressed in HEK cell membranes by radioligand binding assay; details: HEK293, concentration not given here
Sequence of 5-hydroxytryptamine receptor 1E (Homo sapiens) (P28566 whole entry): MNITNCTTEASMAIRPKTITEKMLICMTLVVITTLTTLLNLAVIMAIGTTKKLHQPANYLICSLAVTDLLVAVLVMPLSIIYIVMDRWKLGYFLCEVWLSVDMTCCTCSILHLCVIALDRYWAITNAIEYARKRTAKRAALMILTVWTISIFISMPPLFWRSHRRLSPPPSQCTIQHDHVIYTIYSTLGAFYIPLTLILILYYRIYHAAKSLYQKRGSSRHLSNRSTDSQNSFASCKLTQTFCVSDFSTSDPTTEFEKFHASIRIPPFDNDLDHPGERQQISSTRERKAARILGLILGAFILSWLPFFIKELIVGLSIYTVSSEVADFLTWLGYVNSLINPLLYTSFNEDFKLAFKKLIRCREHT

[19] = target: D(1A) dopamine receptor (Homo sapiens, UniProt P21728); assay: Displacement of [3H]SCH23390 from human recombinant dopamine D1 receptor expressed in HEKT cell membranes by radioligand binding assay
[20] = target: 5-hydroxytryptamine receptor 6 (Homo sapiens, UniProt P50406); assay: Displacement of [3H]LSD from human recombinant 5-HT6 receptor expressed in HEK cell membranes by radioligand binding assay; set-up: species or system HEK293
Sequence of 5-hydroxytryptamine receptor 6 (P50406 whole entry): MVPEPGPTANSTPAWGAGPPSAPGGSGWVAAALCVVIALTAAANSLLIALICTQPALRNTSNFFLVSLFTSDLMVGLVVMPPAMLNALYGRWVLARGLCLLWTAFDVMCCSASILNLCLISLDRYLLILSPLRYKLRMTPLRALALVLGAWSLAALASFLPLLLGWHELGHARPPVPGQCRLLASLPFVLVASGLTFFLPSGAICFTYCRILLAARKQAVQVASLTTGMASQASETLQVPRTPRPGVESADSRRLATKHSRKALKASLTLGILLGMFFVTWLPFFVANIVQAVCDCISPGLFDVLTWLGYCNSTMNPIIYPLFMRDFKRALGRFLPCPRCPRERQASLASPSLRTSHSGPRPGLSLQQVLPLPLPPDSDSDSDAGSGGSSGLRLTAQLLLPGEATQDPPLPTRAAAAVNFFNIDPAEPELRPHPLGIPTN

[21] = target: 5-hydroxytryptamine receptor 5A (Homo sapiens, UniProt P47898); assay: Displacement of [3H]LSD from human recombinant 5-HT5A receptor expressed in Flp-In CHO cell membranes by radioligand binding assay
[22] = target: 5-hydroxytryptamine receptor 2B (Homo sapiens, UniProt P41595); assay: Displacement of [3H]LSD from human recombinant 5-HT2B receptor expressed in HEK cell membranes by radioligand binding assay; set-up: species or system HEK293
Sequence of 5-hydroxytryptamine receptor 2B (P41595 whole entry): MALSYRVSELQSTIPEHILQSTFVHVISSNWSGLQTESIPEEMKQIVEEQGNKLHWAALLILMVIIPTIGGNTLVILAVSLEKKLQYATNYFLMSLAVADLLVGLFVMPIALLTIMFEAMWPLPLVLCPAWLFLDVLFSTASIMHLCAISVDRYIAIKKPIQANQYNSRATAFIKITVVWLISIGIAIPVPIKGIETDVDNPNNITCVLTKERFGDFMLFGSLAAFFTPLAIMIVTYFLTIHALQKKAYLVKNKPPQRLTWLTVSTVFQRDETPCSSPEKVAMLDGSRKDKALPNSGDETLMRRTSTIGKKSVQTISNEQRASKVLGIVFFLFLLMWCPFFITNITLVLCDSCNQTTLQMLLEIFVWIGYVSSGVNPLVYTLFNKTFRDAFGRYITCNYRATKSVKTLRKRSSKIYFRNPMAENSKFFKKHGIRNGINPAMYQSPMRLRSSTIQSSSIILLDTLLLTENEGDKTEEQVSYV

[23] = target: 5-hydroxytryptamine receptor 3A (Homo sapiens) (UniProt P46098); assay: Displacement of [3H]GR65630 from human recombinant 5-HT3 receptor expressed in HEKT cell membranes by radioligand binding assay; details: concentration not given here
[24] = target: Alpha-1A adrenergic receptor (Homo sapiens) (UniProt P35348); assay: Displacement of [3H]prazosin from human recombinant adrenergic alpha1A receptor by radioligand binding assay; details: concentration not given here
[25] = target: Alpha-1D adrenergic receptor (Homo sapiens) (UniProt P25100); assay: Displacement of [3H]prazosin from human recombinant adrenergic alpha1D receptor by radioligand binding assay; details: concentration not given here
[26] = target: Alpha-2B adrenergic receptor (Homo sapiens) (UniProt P18089); assay: Displacement of [3H]rauwolscine from human recombinant adrenergic alpha2B receptor expressed in HEKT cell membranes by radioligand binding assay; details: concentration not given here
[27] = organism: Rattus norvegicus; assay: Displacement of [3H]flunitrazepam from rat brain benzodiazepine receptor by radioligand binding assay; details: concentration not given here
[28] = target: D(2) dopamine receptor (Homo sapiens) (UniProt P14416); assay: Displacement of [3H]N-methylspiperone from human recombinant dopamine D2 receptor expressed in fibroblasts cell membranes by radioligand binding assay; details: Fibroblast, concentration not given here
Sequence of D(2) dopamine receptor (Homo sapiens) (P14416 whole entry): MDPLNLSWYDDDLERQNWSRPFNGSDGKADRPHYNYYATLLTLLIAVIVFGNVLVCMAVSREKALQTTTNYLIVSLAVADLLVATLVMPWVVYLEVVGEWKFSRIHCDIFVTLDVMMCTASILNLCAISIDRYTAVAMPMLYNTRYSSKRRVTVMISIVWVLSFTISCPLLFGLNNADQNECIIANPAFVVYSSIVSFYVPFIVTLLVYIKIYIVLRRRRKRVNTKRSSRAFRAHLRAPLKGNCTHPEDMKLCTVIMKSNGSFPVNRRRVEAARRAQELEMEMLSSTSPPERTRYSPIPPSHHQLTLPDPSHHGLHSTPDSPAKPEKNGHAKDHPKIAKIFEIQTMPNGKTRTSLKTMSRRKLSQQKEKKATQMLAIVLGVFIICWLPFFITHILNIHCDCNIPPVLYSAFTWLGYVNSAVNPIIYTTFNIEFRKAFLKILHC

[29] = target: D(4) dopamine receptor (Homo sapiens) (UniProt P21917); assay: Displacement of [3H]N-methylspiperone from human recombinant dopamine D4 receptor by radioligand binding assay; details: concentration not given here
[30] = target: D(1B) dopamine receptor (Homo sapiens) (UniProt P21918); assay: Displacement of [3H]SCH23390 from human recombinant dopamine D5 receptor expressed in HEKT cell membranes by radioligand binding assay; details: concentration not given here
Sequence of D(1B) dopamine receptor (Homo sapiens) (P21918 whole entry): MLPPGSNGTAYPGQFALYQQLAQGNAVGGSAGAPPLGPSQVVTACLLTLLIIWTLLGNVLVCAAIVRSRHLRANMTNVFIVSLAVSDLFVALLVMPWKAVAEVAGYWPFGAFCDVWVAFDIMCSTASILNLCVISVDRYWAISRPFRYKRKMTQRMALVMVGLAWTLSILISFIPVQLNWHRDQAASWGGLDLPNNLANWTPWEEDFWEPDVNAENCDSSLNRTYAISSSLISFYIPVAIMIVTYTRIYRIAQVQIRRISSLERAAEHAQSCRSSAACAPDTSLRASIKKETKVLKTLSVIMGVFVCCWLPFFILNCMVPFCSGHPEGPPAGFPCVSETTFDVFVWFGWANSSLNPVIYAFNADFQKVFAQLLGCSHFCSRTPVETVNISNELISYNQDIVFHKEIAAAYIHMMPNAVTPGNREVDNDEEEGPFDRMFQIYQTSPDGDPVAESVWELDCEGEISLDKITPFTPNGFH

[31] = target: Delta-type opioid receptor (Homo sapiens) (UniProt P41143); assay: Displacement of [3H]DADLE from human recombinant DOR expressed in HEK cell membranes by radioligand binding assay; details: HEK293, concentration not given here
[32] = organism: Rattus norvegicus; assay: Displacement of [3H]muscimol from rat brain GABAA receptor by radioligand binding assay; details: concentration not given here
[33] = target: Histamine H1 receptor (Homo sapiens) (UniProt P35367); assay: Displacement of [3H]pyrilamine from human recombinant histamine H1 receptor expressed in HEK cell membranes by radioligand binding assay; details: HEK293, concentration not given here
[34] = target: Histamine H3 receptor (Homo sapiens) (UniProt Q9Y5N1); assay: Displacement of [3H]alpha-methylhistamine from human recombinant histamine H3 receptor expressed in HEKFlp-In cell membranes by radioligand binding assay; details: concentration not given here
[35] = target: Histamine H4 receptor (Homo sapiens) (UniProt Q9H3N8); assay: Displacement of [3H]histamine from human recombinant histamine H4 receptor by radioligand binding assay; details: concentration not given here
Sequence of Histamine H4 receptor (Homo sapiens) (Q9H3N8 whole entry): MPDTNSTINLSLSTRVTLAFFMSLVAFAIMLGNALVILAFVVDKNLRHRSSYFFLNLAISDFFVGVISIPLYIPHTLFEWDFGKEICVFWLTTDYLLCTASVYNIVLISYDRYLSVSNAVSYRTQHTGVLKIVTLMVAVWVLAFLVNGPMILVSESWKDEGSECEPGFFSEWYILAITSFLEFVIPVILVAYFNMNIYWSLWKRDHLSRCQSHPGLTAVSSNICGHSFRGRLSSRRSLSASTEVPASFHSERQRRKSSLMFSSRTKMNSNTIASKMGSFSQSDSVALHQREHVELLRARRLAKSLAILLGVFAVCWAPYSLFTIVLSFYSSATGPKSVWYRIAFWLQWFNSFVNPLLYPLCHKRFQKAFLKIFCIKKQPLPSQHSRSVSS

[36] = target: Kappa-type opioid receptor (Homo sapiens) (UniProt P41145); assay: Displacement of [3H]U69593 from human recombinant KOR expressed in HEK cell membranes by radioligand binding assay; details: HEK293, concentration not given here
[37] = target: Muscarinic acetylcholine receptor M1 (Homo sapiens) (UniProt P11229); assay: Displacement of [3H]QNB/[3H]]NMS from human recombinant muscarinic M1 receptor expressed in CHO cell membranes by radioligand binding assay; details: concentration not given here
[38] = target: Muscarinic acetylcholine receptor M2 (Homo sapiens) (UniProt P08172); assay: Displacement of [3H]QNB/[3H]]NMS from human recombinant muscarinic M2 receptor expressed in CHO cell membranes by radioligand binding assay; details: concentration not given here
[39] = target: Muscarinic acetylcholine receptor M3 (Homo sapiens) (UniProt P20309); assay: Displacement of [3H]QNB/[3H]]NMS from human recombinant muscarinic M3 receptor expressed in CHO cell membranes by radioligand binding assay; details: concentration not given here
[40] = target: Muscarinic acetylcholine receptor M4 (Homo sapiens) (UniProt P08173); assay: Displacement of [3H]QNB/[3H]]NMS from human recombinant muscarinic M4 receptor expressed in CHO cell membranes by radioligand binding assay; details: concentration not given here
Sequence of Muscarinic acetylcholine receptor M4 (Homo sapiens) (P08173 whole entry): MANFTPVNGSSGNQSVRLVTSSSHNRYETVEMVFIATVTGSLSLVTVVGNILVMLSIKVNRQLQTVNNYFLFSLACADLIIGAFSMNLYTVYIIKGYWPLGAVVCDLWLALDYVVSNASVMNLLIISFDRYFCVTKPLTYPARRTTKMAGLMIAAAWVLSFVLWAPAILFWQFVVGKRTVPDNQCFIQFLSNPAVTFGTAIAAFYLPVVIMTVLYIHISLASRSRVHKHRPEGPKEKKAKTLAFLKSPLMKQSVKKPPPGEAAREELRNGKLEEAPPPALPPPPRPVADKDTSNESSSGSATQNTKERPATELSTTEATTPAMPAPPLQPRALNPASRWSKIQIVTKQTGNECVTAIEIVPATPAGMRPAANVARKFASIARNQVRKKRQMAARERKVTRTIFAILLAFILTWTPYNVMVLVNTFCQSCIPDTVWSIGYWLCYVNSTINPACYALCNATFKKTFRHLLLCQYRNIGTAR

[41] = target: Muscarinic acetylcholine receptor M5 (Homo sapiens) (UniProt P08912); assay: Displacement of [3H]QNB/[3H]]NMS from human recombinant muscarinic M5 receptor expressed in CHO cell membranes by radioligand binding assay; details: concentration not given here
[42] = target: T2, 5-hydroxytryptamine receptor 1A (Homo sapiens) (UniProt P08908); assay: Potency index, ratio of Ki for N-Methyllaurotetanine to Ki for test compound against human recombinant 5-HT1A receptor expressed in CHO cell membranes by radioligand binding assay
T2 sequence (whole entry): T1 sequence (P08908 whole entry)

CCCCCCOc1cc2c(cc1OC)-c1c(OC)c(OC)cc3c1[C@H](C2)N(C)CC3
Ratio Ki [1]: 5
Ratio Ki [2]: 10
pKi [3]: 7.24
pKi [4]: 6.56
pKi [5]: 6.24

COc1cc2c(cc1O)C[C@H]1c3c(cc(OC)c(OC)c3-2)CCN1C
inhibition [6]: < 50%
inhibition [7]: < 50%
inhibition [8]: < 50%
inhibition [9]: < 50%
pKi [10]: < 6.02
pKi [11]: < 6.02
pKi [12]: < 6.02
pKi [13]: < 6.02
pKi [14]: < 6.02
pKi [15]: < 6.02
pKi [16]: < 6.02
pKi [17]: < 6.02
Ratio Ki [1]: 16
inhibition [18]: < 50%
pKi [19]: 6.43
pKi [3]: 7.70
pKi [20]: 6.51
pKi [21]: 6.25
pKi [22]: 6.49
pKi [4]: 6.50
inhibition [23]: < 50%
inhibition [24]: < 50%
inhibition [25]: < 50%
inhibition [26]: < 50%
inhibition [27]: < 50%
inhibition [28]: < 50%
inhibition [29]: < 50%
inhibition [30]: < 50%
inhibition [31]: < 50%
inhibition [32]: < 50%
inhibition [33]: < 50%
inhibition [34]: < 50%
inhibition [35]: < 50%
inhibition [36]: < 50%
inhibition [37]: < 50%
inhibition [38]: < 50%
inhibition [39]: < 50%
inhibition [40]: < 50%
inhibition [41]: < 50%

COc1cc2c(cc1OC)-c1c(OC)c(OC)cc3c1[C@H](C2)N(C)CC3 [GLAUCINE]
Ratio Ki [1]: 4
Ratio Ki [2]: 22
pKi [3]: 7.37
pKi [4]: 6.77
pKi [5]: 6.02

COc1cc2c(cc1OCc1ccccc1)C[C@H]1c3c(cc(OC)c(OC)c3-2)CCN1C
Ratio Ki [1]: 4
Ratio Ki [2]: 9
Ratio Ki [42]: 3
pKi [3]: 7.64
pKi [4]: 7.04
pKi [5]: 6.67

CCC(C)Oc1cc2c(cc1OC)-c1c(OC)c(OC)cc3c1[C@H](C2)N(C)CC3 (some centres not stated)
Ratio Ki [1]: 7
Ratio Ki [2]: 7
Ratio Ki [42]: < 3
pKi [3]: 7.47
pKi [4]: 6.61
pKi [5]: 6.42

CCCCC(C)Oc1cc2c(cc1OC)-c1c(OC)c(OC)cc3c1[C@H](C2)N(C)CC3 (some centres not stated)
Ratio Ki [1]: 4
Ratio Ki [2]: 12
Ratio Ki [42]: < 3
pKi [3]: 7.42
pKi [4]: 6.82
pKi [5]: 6.35

COc1cc2c(cc1OCCF)C[C@H]1c3c(cc(OC)c(OC)c3-2)CCN1C
Ratio Ki [1]: 16
Ratio Ki [2]: 22
pKi [3]: 7.28
pKi [4]: 6.07
pKi [5]: 5.94

C=CCOc1cc2c(cc1OC)-c1c(OC)c(OC)cc3c1[C@H](C2)N(C)CC3
Ratio Ki [1]: 18
Ratio Ki [2]: 18
pKi [3]: 7.70
pKi [4]: 6.44
pKi [5]: 6.42
